Measurements reported in patent publication US11541050B2, “Pyrimidine derivatives for the treatment of viral infections” (JANSSEN SCIENCES IRELAND UC, priority 2011, dated 2023).

What was measured:
[1] = tested on: HCV replicon in Huh-7 luc/neo cells; experiment: Suppression of HCV replicon replication by conditioned media from compound-treated PBMC; assay type: cell-based, HCV type 1 b; conditions: Hepatitis C virus; conditioned media from compound-treated PBMC on Huh-7 luc/neo replicon cells (compounds 74 onward); read-out: PBMC HUH-7 EC50
Description: Activation of human TLR7 results in robust production of interferon by plasmacytoid dendritic cells present in human blood. The potential of compounds to induce interferon was evaluated by looking at the antiviral activity in the HCV replicon system upon incubation with conditioned media from peripheral blood mononuclear cells (PBMC). […] The assay utilized the stably transfected cell line Huh-7 luc/neo harboring an RNA encoding a bicistronic expression construct comprising the wild type NS3-NS5B regions of HCV type 1 b translated from an Internal Ribosome Entry Site (IRES) from encephalomyocarditis virus (EMCV), preceded by a reporter gene (Firefly-luciferase) and a selectable marker gene (neoR, neomycine phosphotransferase). The construct is flanked by 5′ and 3′ NTRs (non-translated regions) from HCV type 1 b. Continued culture of the replicon cells in the presence of G418 (neoR) is dependent on the replication of the HCV RNA. The stably transfected replicon cells that replicate HCV RNA autonomously and to high levels, encoding inter alia luciferase, were used for profiling of the conditioned cell culture media.
Briefly, PBMCs were prepared from buffy coats of at least two donors using a standard Ficoll centrifugation protocol. Isolated PBMCs were resuspended in RPMI medium supplemented with 10% human AB serum and 2×10^5 cells/well were dispensed into 384-well plates containing compounds (70 μL total volume). After overnight incubation, 10 μL of supernatant was transferred to 384-well plates containing 2.2×10^3 replicon cells/well in 30 μL (plated the day before). Following 24 hours of incubation, replication was measured by assaying luciferase activity using 40 μL/well Steady Lite Plus substrate (Perkin Elmer) and measured with ViewLux ultraHTS microplate imager (Perkin Elmer). […] Recombinant interferon α-2a (Roferon-A) was used as a standard control compound.

[2] = target: T1, human TLR7 (wild type sequence) (Homo sapiens, UniProt Q9NYK1); experiment: TLR7 cellular NFκB-luc reporter assay, wild type TLR7; assay type: cell-based; set-up: unit not given here; conditions: lowest effective concentration, wild type TLR7 (compounds 74 onward)
T1 construct: expressed in transfected cells; host or cells: HEK293
T1 sequence (Q9NYK1 27-1049): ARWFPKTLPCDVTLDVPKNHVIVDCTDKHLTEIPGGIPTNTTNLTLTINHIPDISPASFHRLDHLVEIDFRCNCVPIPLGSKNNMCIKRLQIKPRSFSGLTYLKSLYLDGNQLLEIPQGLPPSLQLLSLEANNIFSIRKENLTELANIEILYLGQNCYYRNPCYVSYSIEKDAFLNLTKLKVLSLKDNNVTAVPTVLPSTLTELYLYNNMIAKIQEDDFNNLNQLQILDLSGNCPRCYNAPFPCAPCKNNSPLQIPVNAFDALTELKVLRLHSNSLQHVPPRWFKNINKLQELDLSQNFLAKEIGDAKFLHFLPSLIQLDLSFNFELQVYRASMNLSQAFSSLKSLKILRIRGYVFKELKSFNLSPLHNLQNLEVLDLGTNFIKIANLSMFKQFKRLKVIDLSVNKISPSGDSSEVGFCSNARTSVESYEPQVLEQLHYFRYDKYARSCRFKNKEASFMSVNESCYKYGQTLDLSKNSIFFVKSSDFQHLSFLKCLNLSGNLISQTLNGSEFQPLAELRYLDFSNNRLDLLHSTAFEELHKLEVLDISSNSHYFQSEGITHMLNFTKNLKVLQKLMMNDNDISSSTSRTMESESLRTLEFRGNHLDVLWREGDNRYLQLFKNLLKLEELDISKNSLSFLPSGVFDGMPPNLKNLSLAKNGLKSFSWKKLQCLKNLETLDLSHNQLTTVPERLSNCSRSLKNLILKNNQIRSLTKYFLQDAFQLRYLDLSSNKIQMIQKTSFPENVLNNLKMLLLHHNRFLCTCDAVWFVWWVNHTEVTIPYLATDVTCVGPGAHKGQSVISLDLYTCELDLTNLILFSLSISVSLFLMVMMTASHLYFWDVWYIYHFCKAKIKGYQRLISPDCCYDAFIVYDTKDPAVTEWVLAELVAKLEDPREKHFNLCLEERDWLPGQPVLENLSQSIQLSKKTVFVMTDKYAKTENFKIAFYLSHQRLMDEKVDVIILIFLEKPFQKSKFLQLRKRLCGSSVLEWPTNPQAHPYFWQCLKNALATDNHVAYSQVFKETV
Description: (§1) The ability of compounds to activate human TLR7 and/or TLR8 was assessed in a cellular reporter assay using HEK293 cells transiently transfected with a TLR7 or TLR8 expression vector and NFκB-luc reporter construct. In one instance the TLR expression construct expresses the respective wild type sequence or a mutant sequence comprising a deletion in the second leucine-rich repeat of the TLR.
(§2) Briefly, HEK293 cells were grown in culture medium (DMEM supplemented with 10% FCS and 2 mM Glutamine). For transfection of cells in 10 cm dishes, cells were detached with Trypsin-EDTA, transfected with a mix of CMV-TLR7 or TLR8 plasmid (750 ng), NFκB-luc plasmid (375 ng) and a transfection reagent and incubated for 48 hours at 37° C. in a humidified 5% CO2 atmosphere. Transfected cells were then detached with Trypsin-EDTA, washed in PBS and resuspended in medium to a density of 1.67×10^5 cells/mL. Thirty microliters of cells were then dispensed into each well in 384-well plates, where 10 μL of compound in 4% DMSO was already present. Following 6 hours incubation at 37° C., 5% CO2, the luciferase activity was determined by adding 15 μl of Steady Lite Plus substrate (Perkin Elmer) to each well and readout performed on a ViewLux ultraHTS microplate imager (Perkin Elmer). Dose response curves were generated from measurements performed in quadruplicates. Lowest effective concentrations (LEC) values, defined as the concentration that induces an effect which is at least two fold above the standard deviation of the assay, were determined for each compound.

[3] = target: T2, human TLR8 (wild type sequence) (Homo sapiens, UniProt Q9NR97); experiment: TLR8 cellular NFκB-luc reporter assay, wild type TLR8; assay type: cell-based; set-up: unit not given here; conditions: lowest effective concentration, wild type TLR8 (compounds 74 onward)
T2 construct: expressed in transfected cells; host or cells: HEK293
T2 sequence (Q9NR97 27-1041): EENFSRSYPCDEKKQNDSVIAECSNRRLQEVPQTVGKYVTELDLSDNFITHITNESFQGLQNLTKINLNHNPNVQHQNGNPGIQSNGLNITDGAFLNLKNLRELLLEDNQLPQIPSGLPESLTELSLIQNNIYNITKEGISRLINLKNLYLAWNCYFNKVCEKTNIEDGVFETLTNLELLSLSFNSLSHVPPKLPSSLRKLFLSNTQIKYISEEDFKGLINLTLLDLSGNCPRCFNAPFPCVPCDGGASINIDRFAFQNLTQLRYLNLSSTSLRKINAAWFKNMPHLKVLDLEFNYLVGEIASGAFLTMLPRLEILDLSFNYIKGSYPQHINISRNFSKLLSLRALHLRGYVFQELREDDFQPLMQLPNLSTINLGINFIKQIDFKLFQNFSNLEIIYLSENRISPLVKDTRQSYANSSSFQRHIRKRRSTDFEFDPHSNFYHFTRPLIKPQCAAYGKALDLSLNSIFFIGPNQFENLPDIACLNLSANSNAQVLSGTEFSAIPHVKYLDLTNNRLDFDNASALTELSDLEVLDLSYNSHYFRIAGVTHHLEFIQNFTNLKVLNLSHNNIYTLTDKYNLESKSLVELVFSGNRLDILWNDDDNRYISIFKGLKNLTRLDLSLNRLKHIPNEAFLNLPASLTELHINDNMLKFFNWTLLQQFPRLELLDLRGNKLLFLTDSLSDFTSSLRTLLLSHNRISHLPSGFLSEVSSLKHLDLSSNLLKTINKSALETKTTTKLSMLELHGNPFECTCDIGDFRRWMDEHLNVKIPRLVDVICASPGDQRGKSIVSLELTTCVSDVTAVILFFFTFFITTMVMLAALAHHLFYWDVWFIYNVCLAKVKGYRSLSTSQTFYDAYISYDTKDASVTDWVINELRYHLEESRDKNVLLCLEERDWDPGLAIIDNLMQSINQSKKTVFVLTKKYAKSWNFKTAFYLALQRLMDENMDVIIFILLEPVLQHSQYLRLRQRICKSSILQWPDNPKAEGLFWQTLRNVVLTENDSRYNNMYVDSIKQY
Description: as §1, §2

Structure (SMILES)	EC50 [1]	TLR 7 wt LEC [2]	TLR 8 wt LEC [3]
CCCCNc1nc(N)ncc1OCCCc1ccc(C(F)(F)F)cc1 [Compound 153]	3430 nM	10.640	–
CCCCNc1nc(N)ncc1OCCOc1cc(C(C)C)nc2cc(OC)ccc12 [Compound 142]	19700 nM	>25	2.370
CCCCNc1nc(N)ncc1OCCCc1ccc(OC)c(OC)c1 [Compound 74]	157 nM	0.713	1.720
CCC(CO)Nc1nc(N)ncc1OC (stereo not shown) [Compound 92]	20200 nM	>25	14.570
CCCCNc1nc(N)ncc1OCc1cc(OC2Cc3ccccc3C2)c(OC)cn1 [Compound 172]	45 nM	0.187	2.000
CCCCNc1nc(N)ncc1OCc1cc(C)n(C)n1 [Compound 117]	88 nM	0.335	1.120
CCC[C@@H](CCO)Nc1nc(N)ncc1OCc1ccc2ccccc2n1 [Compound 188]	86 nM	0.237	0.530
CCCC(C)Nc1nc(N)ncc1OCc1ccc2ccccc2n1 (stereo not shown) [Compound 185]	488 nM	0.743	2.340
CCCC(COC)Nc1nc(N)ncc1OC (stereo not shown) [Compound 106]	3150 nM	16.100	5.940
CCCCNc1nc(N)ncc1OCCCCc1ccccc1 [Compound 110]	740 nM	2.380	3.780
CCC[C@@H](CO)Nc1nc(N)ncc1OCCCc1ccccc1 [Compound 125]	336 nM	1.630	0.598
CCCCNc1nc(N)ncc1OCc1noc(-c2ccccc2)n1 [Compound 156]	697 nM	0.828	2.060
CCCCNc1nc(N)ncc1OCc1cc(C(=O)OCC)ccn1 [Compound 170]	2630 nM	0.319	1.750
CCCCNc1nc(N)ncc1OCc1cccc(C)n1 [Compound 122]	25 nM	0.118	0.628
CCCCNc1nc(N)ncc1OCC(=O)c1ccc(OC)cc1 [Compound 94]	696 nM	1.590	3.170
CCCC[C@@H](CO)Nc1nc(N)ncc1OCCCc1ccccc1 [Compound 154]	3020 nM	3.710	2.960
CCCCNc1nc(N)ncc1OCc1cc(OC2CCCC2)c(OC)cn1 [Compound 173]	86 nM	0.222	2.550
CCCCNc1nc(N)ncc1OCCOc1ccc(C(=O)OC)cc1OC [Compound 132]	634 nM	1.470	>25
CCCCNc1nc(N)ncc1OCc1cccc2cccnc12 [Compound 184]	53 nM	0.157	1.650
CCCCNc1nc(N)ncc1OCCOc1cc(OC)c(OC)c(OC)c1 [Compound 133]	585 nM	1.500	3.090
CCCC(CCC)Nc1nc(N)ncc1OCCCc1ccccc1 [Compound 114]	2000 nM	2.020	>25
CCCCNc1nc(N)ncc1OCCOc1ccncc1 [Compound 84]	76 nM	0.860	0.250
CCCCNc1nc(N)ncc1OCc1cccc2c1OCCCO2 [Compound 138]	570 nM	1.040	1.050
CCCCNc1nc(N)ncc1OCc1nccc(OCC(F)(F)F)c1C [Compound 139]	9 nM	0.025	0.286
CCCC[C@@H](CO)Nc1nc(N)ncc1OCc1ncc(C)c(OC)c1C [Compound 194]	19 nM	0.031	0.164
CCCC(C)Nc1nc(N)nc(C)c1OCc1ccccc1 (stereo not shown) [Compound 168]	11700 nM	>25	14.900
CCCCNc1nc(N)ncc1OCCCc1ccc(OC)c(OC)c1OC [Compound 164]	769 nM	0.606	23.030
CCCCNc1nc(N)ncc1OCCCCCc1ccccc1 [Compound 111]	96 nM	0.257	–
